We go through one molecule from patent US9409122B2, “Gas capture process” (Commonwealth Scientific and Industrial Research Organisation, priority 2011, dated 2016).

The structures appear in SMILES notation.

The nature of the series: CO2 desorption at 90° C. Format: physicochemical. The protocol: The test results (shown in the accompanying figures) are a comparison of four compounds within general formula (I) with 4-aminopiperidine in terms of their CO2 absorption at 40° C. (FIG. 2(a)) and CO2 desorption at 90° C. (FIG. 2(b)). These absorption experiments were carried with CO2 gas (99%).
In FIG. 3, CO2 absorption and desorption results for Compounds 1 to 4 and 4-aminopiperidine (2M and 1.7M in one case due to the material availability) were compared with MEA (4M) and piperazine (Pz) (2M). An MEA concentration of 4M was chosen in this comparison to match the total amine/nitrogen concentration of diamines (2×2M).

With `C1CNCCN1` [Pz, piperazine], the stability of carbamate result is given as “reasonably stable”.
